The source of these data is paper PMC10028264, “Synergistic antifungal interaction of N-(butylcarbamothioyl) benzamide and amphotericin B against Cryptococcus neoformans” (Frontiers in Microbiology, 2023).

One data set has as its target T1, cryptococcal urease (Cryptococcus neoformans, UniProt O13465).
T1 construct: 100 μL of crude protein extract; endogenous in cells; host or cells: Cryptococcus neoformans ATCC 34872, crude lysate (glass-bead lysis, supernatant)
Nature of the data set: Urease activity inhibition test (indophenol method, crude protein extract). Format: biochemical. Here is the method: Five colonies of C. neoformans were suspended in 100 μL SD broth and inoculated onto SD agar using a Drigalski spreader, and the culture was incubated at 37°C for 48 h. Afterward, all fungal growth was gently scraped and transferred to conical flasks containing 300 mL of SD broth and incubated with shaking (150 rpm) at 37°C for further 48 h. Cells were centrifuged (6,000 × g, 10 min) and washed three times with distilled water. The protein extraction was performed according to [Moller et al. (2016)] with modifications. Briefly, fungal cells were resuspended in 10 mL of chilled lysis buffer consisting of 100 μM Nα-tosyl-L-lysine chloromethyl ketone hydrochloride (TLCK), 1 mM EDTA, 10% glycerol and 0.15 M phosphate-buffered saline (PBS), pH 8.0. […] Then, the cell debris was removed by centrifugation (6,000 × g, 15 min, 4°C), and the protein content of the resulting supernatant was quantified using the […].
The inhibition of urease activity was evaluated by the indophenol method ([Weatherburn, 1967]). […] The reaction mixtures were incubated for further 10 min at 45°C, and the optical density (OD) was measured at 630 nm. Urease inhibition percentage (I%) was calculated according to the equation: I% = 100–(ODBTU–01/ODcontrol) × 100. […]

Data set [1] can be described thus: Cytotoxicity, MTT reduction assay. Format: cell-based, human. As to conditions: human, HEp-2 CCL-23 cells, 24 h, MTT. The method, then:
(§1) The effect of BTU-01 was analyzed on mammalian epithelial cell lines [HEp-2 CCL-23™ (ATCC), LLC-MK2, VERO CCL81 and HeLa (Merck, Brazil)], and the cytotoxicity was evaluated as described by [Longhi et al. (2016)] with modifications. Briefly, cells were cultured in Dulbecco’s Modified Eagle’s medium (DMEM) supplemented with 10% fetal bovine serum (Invitrogen, Brazil), 2 mM L-glutamine, 100 IU/mL penicillin, 100 μg/mL streptomycin, 1% tylosin in flat-bottomed 96-well microtiter plates, in 5% CO2 at 37°C for 48 h. Then, the medium was carefully removed and fresh medium containing twofold serially diluted BTU-01 (0.095–500.0 μg/mL) was added. The cells were incubated for further 24 h under the same conditions. Cell viability was analyzed by the MTT reduction assay according to the manufacturer’s recommendation. The concentration of the compound needed to inhibit the viable cells up to 50 and 90% by regression analysis corresponds to the 50% (CC50) and 90% (CC90) cytotoxic concentrations, respectively.
(§2) The concentration of BTU-01 capable of causing 90% of hemolysis/cytotoxicity was used to calculate the selectivity index (SI) using the following equation: SI = CC90/MIC.
On the technique in general: Formazan colour is commonly taken as a measure of viable cells.

For another data set, the system named is HEp-2 CCL-23. The data set can be described thus: Cytotoxicity, MTT reduction assay. Type of data set: cell-based, human. As to conditions: SI = CC90/MIC, MIC 62.5 μg/mL. The method, then:
as §1, §2

Usually pIC50 stands for −log10 of the IC50, conventionally taken in molar units. Higher therefore signals a small IC50. As usually defined, the CC50 is the concentration that lowers cell viability or growth by half. Lower therefore signals harm at low concentration.

pIC50: −log10 of the molar value. In brackets after ≈: the same amount, converted by molar mass.

T1 sequence (O13465 whole entry): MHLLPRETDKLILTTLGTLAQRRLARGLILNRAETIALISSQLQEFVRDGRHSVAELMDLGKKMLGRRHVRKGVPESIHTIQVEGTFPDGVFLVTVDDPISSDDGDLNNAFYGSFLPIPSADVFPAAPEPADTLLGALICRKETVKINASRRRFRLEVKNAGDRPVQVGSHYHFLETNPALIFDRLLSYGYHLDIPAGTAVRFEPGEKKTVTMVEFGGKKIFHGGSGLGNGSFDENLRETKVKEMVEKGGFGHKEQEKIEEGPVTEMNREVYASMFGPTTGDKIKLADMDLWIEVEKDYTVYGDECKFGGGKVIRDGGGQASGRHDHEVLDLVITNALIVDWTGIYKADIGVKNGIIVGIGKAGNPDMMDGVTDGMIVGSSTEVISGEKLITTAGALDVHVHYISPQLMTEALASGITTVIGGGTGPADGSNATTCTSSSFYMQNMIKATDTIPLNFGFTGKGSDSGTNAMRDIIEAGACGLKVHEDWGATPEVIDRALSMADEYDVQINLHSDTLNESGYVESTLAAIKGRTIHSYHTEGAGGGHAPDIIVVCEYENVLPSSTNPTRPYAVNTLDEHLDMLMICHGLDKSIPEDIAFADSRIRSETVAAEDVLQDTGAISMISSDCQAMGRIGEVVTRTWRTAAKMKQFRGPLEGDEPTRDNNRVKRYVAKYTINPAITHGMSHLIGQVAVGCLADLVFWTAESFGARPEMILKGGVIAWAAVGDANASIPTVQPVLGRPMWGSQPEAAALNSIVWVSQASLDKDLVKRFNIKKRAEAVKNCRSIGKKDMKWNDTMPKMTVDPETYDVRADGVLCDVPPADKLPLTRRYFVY

Compound `CCCCNC(=S)NC(=O)c1ccccc1` [BTU-01, N-(butylcarbamothioyl) benzamide] gave a pIC50 on cryptococcal urease of 3.65. Moreover, in data set [1], it took 104 µg/mL (≈ 441 µM) to reach half-maximal cytotoxicity (CC50 at 24 h) and the CC90 at 24 h was 245 µg/mL (≈ 1040 µM). This compound showed an SI in the data set on HEp-2 CCL-23 of 3.9.
